The target in one data set is σ1 receptors (Cavia porcellus, UniProt Q60492). Kind of data set: σ1 receptor binding, competition against [3H]. Further details: species or system guinea pig. As to conditions: for fold lower σ1 receptor affinity than positional isomers: 2-substituted ligand versus its 3- and/or 4-substituted isomers; for Hill Slope: guinea pig brain membranes, mean ± SEM.
The nature of data set [1]: Lipophilicity by reverse-phase HPLC. The conditions noted are these: aqueous phase pH 7.5, text calls it log k′w. Type of data set: physicochemical.

Sequence of σ1 receptors (Q60492 whole entry): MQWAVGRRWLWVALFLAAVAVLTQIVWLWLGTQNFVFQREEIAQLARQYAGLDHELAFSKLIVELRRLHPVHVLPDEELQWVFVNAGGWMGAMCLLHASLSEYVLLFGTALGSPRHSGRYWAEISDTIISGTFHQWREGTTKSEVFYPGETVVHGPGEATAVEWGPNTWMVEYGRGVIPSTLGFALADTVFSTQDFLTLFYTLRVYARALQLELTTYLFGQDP

Broadly, the IC50 is the concentration needed to halve the response being measured. Low values mean greater potency, high ones weaker potency. The term Ki denotes the dissociation constant of the complex between target and ligand, obtained from inhibition or displacement. Regarding `Clc1ccc(CCNCCNCCc2ccccc2I)cc1Cl` [Compound 10, N-[2-(3,4-Dichlorophenyl)-ethyl]-N′-[2-(2-iodophenyl)-ethyl]-ethane-1,2-diamine], at σ1 receptors, the IC50 came out at 0.0625 ± 0.00096 µM; the affinity, expressed as Ki, was 0.0432 ± 0.00066 µM; the “fold lower σ1 receptor affinity than positional isomers” value turned out to be 2.7 fold; the “Hill Slope” value was −1.12 ± 0.03.

In the case of `Clc1ccc(CCNCCNCCc2ccc(I)cc2)cc1Cl` [Compound 11, N-[2-(3,4-Dichlorophenyl)-ethyl]-N′-[2-(4-iodophenyl)-ethyl]-ethane-1,2-diamine], in data set [1], the “k′w” value is 3.71 ± 0.05. Further, on σ1 receptors, the IC50 was found to be 0.0229 ± 0.00094 µM, the Ki is 0.0158 ± 0.00065 µM and the “Hill Slope” value was −1.59 ± 0.08. Besides, the “fold poorer Ki value than compounds 6 or 9” value on σ1 receptors (4-iodo versus 4-fluoro or 4-bromo derivative) was determined as 2 fold.

Regarding `Fc1cccc(CCNCCNCCc2ccc(Cl)c(Cl)c2)c1` [Compound 5, N-[2-(3,4-Dichlorophenyl)-ethyl]-N′-[2-(3-fluorophenyl)-ethyl]-ethane-1,2-diamine], the “k′w” value in data set [1] is 2.54. Moreover, at σ1 receptors, the IC50 is 0.0112 ± 0.00129 µM, the Ki came to 0.00774 ± 0.00089 µM and the “Hill Slope” value is −1.13 ± 0.09.

Regarding `Fc1ccccc1CCNCCNCCc1ccc(Cl)c(Cl)c1` [Compound 4, N-[2-(3,4-Dichlorophenyl)-ethyl]-N′-[2-(2-fluorophenyl)-ethyl]-ethane-1,2-diamine], at σ1 receptors, the IC50 was determined as 0.0175 ± 0.00031 µM; the affinity, expressed as Ki, was 0.0121 ± 0.00022 µM; the “fold lower σ1 receptor affinity than positional isomers” value was 1.5 fold; the “Hill Slope” value is reported as −1.07 ± 0.01.

Consider `Clc1ccc(CCNCCNCCc2cccc(Br)c2)cc1Cl` [Compound 8, N-[2-(3-Bromophenyl)-ethyl]-N′-[2-(3,4-dichlorophenyl)-ethyl]-ethane-1,2-diamine], for which the “k′w” value in data set [1] stood at 3.06 ± 0.07. Moreover, at σ1 receptors, the IC50 was 0.00914 ± 0.00085 µM, the Ki is 0.00635 ± 0.00059 µM and the “Hill Slope” value is −1.02 ± 0.15.

For the molecule `Fc1ccc(CCNCCNCCc2ccc(Cl)c(Cl)c2)cc1` [Compound 6, N-[2-(3,4-Dichlorophenyl)-ethyl]-N′-[2-(4-fluorophenyl)-ethyl]-ethane-1,2-diamine], the “k′w” value in data set [1] was determined as 2.54 ± 0.05. At σ1 receptors, the IC50 was 0.0113 ± 0.00202 µM, affinity was put at a Ki of 0.00783 ± 0.00139 µM and the “Hill Slope” value is recorded as −1.21 ± 0.05.

For `Clc1ccc(CCNCCNCCc2ccc(Br)cc2)cc1Cl` [Compound 9, N-[2-(4-Bromophenyl)-ethyl]-N′-[2-(3,4-dichlorophenyl)-ethyl]-ethane-1,2-diamine], the “k′w” value in data set [1] came out at 3.31 ± 0.08. Further, at σ1 receptors, the IC50 was found to be 0.00985 ± 0.00392 µM, the affinity corresponds to a Ki of 0.0068 ± 0.00271 µM and the “Hill Slope” value is given as −1.00 ± 0.02.

As for `Clc1ccc(CCNCCNCCc2ccccc2Br)cc1Cl` [Compound 7, N-[2-(2-Bromophenyl)-ethyl]-N′-[2-(3,4-dichlorophenyl)-ethyl]-ethane-1,2-diamine], the “k′w” value in data set [1] is listed as 3.09 ± 0.05. Besides, at σ1 receptors, the IC50 is 0.0266 ± 0.00395 µM; the affinity, expressed as Ki, was 0.0184 ± 0.00273 µM; the “fold lower σ1 receptor affinity than positional isomers” value turned out to be 2.7 fold; the “Hill Slope” value was −0.78 ± 0.03.
